In patent publication US20220054513A1, “COMBINATION COMPOSITIONS COMPRISING A BETA-LACTAMASE INHIBITOR” (VenatoRx Pharmaceuticals, Inc., priority 2018, published 2022):

Test system: Acinetobacter baumannii-calcoaceticus species complex clinical isolates
Experiment: MIC of triple combinations (Compound 1, sulbactam, meropenem or cefepime), 141 clinical isolates
Assay type: cell-based
Settings: Cmpd 1 at 4 μg/mL in combinations
Text: For a more comprehensive assessment of the ability of test compounds to potentiate sulbactam in triple combinations with β-lactams additional MIC assays were utilized.

Work on `C[C@@H](O)[C@H]1C(=O)N2C(C(=O)O)=C(S[C@@H]3CN[C@H](C(=O)N(C)C)C3)[C@H](C)[C@H]12` [MEM] yielded an MIC (strain 993131) of 64 mg/L, an MIC (strain 994180) of 2 mg/L and an MIC (strain 995771) of 256 mg/L. The MIC (strain 996612) was 32 mg/L, the MIC (strain 996869) was >256 mg/L and the MIC (strain 997574) was 256 mg/L. For the same compound, the MIC (strain 998107) was 64 mg/L, the MIC (strain 998532) was 256 mg/L and the MIC (strain 998898) was 32 mg/L. It also gave an MIC (strain 998907) of 16 mg/L, an MIC (strain 999306) of 2 mg/L and an MIC (strain 1001007) of 256 mg/L. The MIC (strain 1001611) was 32 mg/L, the MIC (strain 1002208) was 64 mg/L and the MIC (strain 1002952) was >256 mg/L. For the same compound, the MIC (strain 1002960) was >256 mg/L, the MIC (strain 1003557) was 256 mg/L and the MIC (strain 1003787) was >256 mg/L. For the same compound, the MIC (strain 1008508) was >256 mg/L, the MIC (strain 1008510) was 256 mg/L and the MIC (strain 1010245) was 64 mg/L. For the same compound, the MIC (strain 1010331) was 64 mg/L, the MIC (strain 1011959) was 64 mg/L and the MIC (strain 1013022) was 256 mg/L. For the same compound, the MIC (strain 1013035) was 256 mg/L, the MIC (strain 1013055) was 32 mg/L and the MIC (strain 1013322) was 64 mg/L. For the same compound, the MIC (strain 1014143) was 8 mg/L, the MIC (strain 1014646) was 64 mg/L and the MIC (strain 1014815) was 256 mg/L. For the same compound, the MIC (strain 1014866) was 64 mg/L, the MIC (strain 1014870) was 256 mg/L and the MIC (strain 1014878) was 64 mg/L. It also gave an MIC (strain 1018109) of 0.25 mg/L, an MIC (strain 1018801) of 256 mg/L and an MIC (strain 1018802) of 256 mg/L. For the same compound, the MIC (strain 1018807) was 64 mg/L, the MIC (strain 1018851) was 256 mg/L and the MIC (strain 1019086) was 256 mg/L. For the same compound, the MIC (strain 1023031) was >256 mg/L, the MIC (strain 1023034) was 64 mg/L and the MIC (strain 1023074) was 32 mg/L. The MIC (strain 1023207) was 32 mg/L, the MIC (strain 1023329) was 64 mg/L and the MIC (strain 1024119) was 4 mg/L. It also gave an MIC (strain 1026990) of 256 mg/L, an MIC (strain 1026992) of 32 mg/L and an MIC (strain 1027234) of 64 mg/L. For the same compound, the MIC (strain 1027590) was 256 mg/L, the MIC (strain 1027603) was 64 mg/L and the MIC (strain 1027748) was 32 mg/L. For the same compound, the MIC (strain 1028193) was >256 mg/L, the MIC (strain 1029770) was >256 mg/L and the MIC (strain 1029913) was 32 mg/L. For the same compound, the MIC (strain 1030427) was 256 mg/L, the MIC (strain 1031167) was 256 mg/L and the MIC (strain 1031191) was 64 mg/L. For the same compound, the MIC (strain 1031211) was 64 mg/L, the MIC (strain 1031238) was 256 mg/L and the MIC (strain 1032669) was 64 mg/L. It also gave an MIC (strain 1032761) of 256 mg/L, an MIC (strain 1033340) of 256 mg/L and an MIC (strain 1033979) of 256 mg/L. For the same compound, the MIC (strain 1034048) was 256 mg/L, the MIC (strain 1034912) was 64 mg/L and the MIC (strain 1034913) was 64 mg/L. For the same compound, the MIC (strain 1034916) was 64 mg/L, the MIC (strain 1034925) was 64 mg/L and the MIC (strain 1034962) was 64 mg/L. For the same compound, the MIC (strain 1035144) was 256 mg/L, the MIC (strain 1035788) was 64 mg/L and the MIC (strain 1035794) was 32 mg/L. For the same compound, the MIC (strain 1035808) was 16 mg/L, the MIC (strain 1035825) was 64 mg/L and the MIC (strain 1036045) was 64 mg/L. The MIC (strain 1036068) was 64 mg/L, the MIC (strain 1036734) was 64 mg/L and the MIC (strain 1036768) was 8 mg/L. For the same compound, the MIC (strain 1036781) was >256 mg/L, the MIC (strain 1036859) was 64 mg/L and the MIC (strain 1036882) was 256 mg/L. The MIC (strain 1036921) was 1 mg/L, the MIC (strain 1037193) was >256 mg/L and the MIC (strain 1037211) was 2 mg/L. The MIC (strain 1037251) was 64 mg/L, the MIC (strain 1037256) was 64 mg/L and the MIC (strain 1037479) was 256 mg/L. It also gave an MIC (strain 1037593) of 256 mg/L, an MIC (strain 1037618) of 1 mg/L and an MIC (strain 1037714) of 256 mg/L. For the same compound, the MIC (strain 1037731) was 0.5 mg/L, the MIC (strain 1037732) was 256 mg/L and the MIC (strain 1037738) was >256 mg/L. The MIC (strain 1037747) was 256 mg/L, the MIC (strain 1038418) was 0.25 mg/L and the MIC (strain 1038439) was 0.25 mg/L. For the same compound, the MIC (strain 1039502) was 64 mg/L, the MIC (strain 1039518) was 64 mg/L and the MIC (strain 1040900) was 64 mg/L. It also gave an MIC (strain 1040901) of 64 mg/L and an MIC (strain 1042182) of 64 mg/L.
